Consider two molecules from US11209440B2, “T cell balance gene expression, compositions of matters and methods of use thereof” (THE BROAD INSTITUTE, INC., priority 2014, dated 2021).

In assay [1] the test system is Th17 cells. Description: FACS of IL-17 and IL-23R.GFP in Th17 cells treated with free fatty acids. It is filed as cell-based, mouse. Here is the method: (§1) (A) Naïve T cells were sorted from either WT or IL-23RGFP reporter mice, activated with plate-bound anti-CD3/anti-CD28 and differentiated with TGFβ1+IL-6 for 48 hours. […] (B) Cells from WT and Rorc^−/− mice were sorted, differentiated and treated with FFA as in A. Cells were harvested for RNA purification and qPCR. (C) Naïve WT and CD5L^−/− T cells were differentiated as in A. Cells were then lifted, washed and replated in fresh media with no addition of cytokines and in the presence of control or 5 uM of arachidonic acid (PUFA). Cytokine profile of T cells were measured after PMA/ionomycin restimulation. […] Another 48 hours later, cells were harvested for nanostring analysis (D) or qPCR (E).

Assay [2] has as its system Th17 cells. In words: qPCR and Nanostring signature analysis of Th17 cells treated with free fatty acids. It is filed as cell-based, mouse. Here is the method:
as §1
Next, the contribution of lipid saturation to Th17 cell pathogenicity was studied.
A general note: Quantitative PCR measures a nucleic acid by following its amplification.

The target in assay [3] is T1, Rorγt (Mus musculus, UniProt P51450).
T1 sequence (P51450 1-495 isoform P51450-2): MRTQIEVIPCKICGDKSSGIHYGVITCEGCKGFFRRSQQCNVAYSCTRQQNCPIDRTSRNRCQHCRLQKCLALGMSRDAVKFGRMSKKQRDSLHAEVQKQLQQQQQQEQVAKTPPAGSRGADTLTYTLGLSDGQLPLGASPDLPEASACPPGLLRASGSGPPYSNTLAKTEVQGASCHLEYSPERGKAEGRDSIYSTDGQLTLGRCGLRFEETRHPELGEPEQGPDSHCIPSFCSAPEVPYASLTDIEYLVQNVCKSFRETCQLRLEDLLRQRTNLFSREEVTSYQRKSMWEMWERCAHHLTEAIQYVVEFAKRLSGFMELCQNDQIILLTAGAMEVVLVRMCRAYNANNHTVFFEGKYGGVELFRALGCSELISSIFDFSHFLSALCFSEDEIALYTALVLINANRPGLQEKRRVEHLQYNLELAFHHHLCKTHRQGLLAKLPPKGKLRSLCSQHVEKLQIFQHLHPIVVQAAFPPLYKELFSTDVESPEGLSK
In words: Dual luciferase reporter assay in EL4 cells stably transfected with Rorγt vector. It is filed as cell-based. Further details: expressed in transfected cells; host or cells: EL4 cells, stably transfected. The conditions noted are these: for Rorγt driven Il17a transcription: 10 μM arachidonic acid. Here is the method:
(§2) Lipidome analysis of Th17 cells. (A) WT and CD5L^−/− naïve T cells were differentiated as in FIG. 46B in the presence of cytokines as indicated. Cells and supernatant were harvested at 96 hours and subjected to MS/LC. Three independent mouse experiments were performed. […] (B) Expression of representative metabolites including a cholesterol ester and a PUFA-containing TAG species. FIG. 48 C, D, E, F-J show as follows: (C) Metabolomic analysis of independent mouse experiments where T cells were differentiated under various cytokine conditions as indicated and harvested at 48 h and 96 h. (D,E) Rorγt ChIP from Th17 cells differentiated as described in A. under various conditions as indicated. F-K. Dual luciferase reporter assay was performed in EL4 cells stably transfected with a control vector or Rorγt vector. (F, G) CD5L retroviral vector was cotransfected in F and G at 0, 25, 50 and 100 ng/well. […] All ChIP and luciferase assay are representative of at least 3 independent experiments.
(In general: In a reporter assay the amount or activity of a reporter protein is the signal.)

In assay [4] the target is T1, Rorγt. In words: Rorγt ChIP-PCR in Th17 cells with added SFA or PUFA. It is filed as cell-based. Further details: endogenous in cells; host or cells: wild-type mouse Th17 cells differentiated in vitro from naïve CD4+ T cells. The conditions noted are these: WT Th17 cells. Here is the method:
as §2

The subject of assay [5] is Cd5l expression. Description: Cd5l expression by qPCR in TGFβ1+IL-6 Th17 cells expanded with or without IL-23. The conditions noted are these: naïve T cells differentiated with TGFβ1+IL-6 for 48 h, then IL-23 vs PBS in fresh media. The format is cell-based, mouse. From the text:
FIG. 45A-45H show Single-cell RNA-seq identifies Cd5l as a novel regulator associated with Th17 cell pathogenicity and expressed only by non-pathogenic Th17 cells. Single-cells were sorted from in-vitro Th17 cells differentiated with TGFβ1+IL-6 (A,B), IL-1β+IL-6+IL-23 (C), TGFβ3+IL-6 (D) and in-vivo Th17 cells from CNS of mice at the peak of EAE (score=3) (D). IL-17A.GFP^+ CD4^+ T cells were sorted in all panels in D. (A) Correlation of CD5L expression in non-pathogenic Th17 cells with the pathogenic signature (Lee, Awasthi et al.). (B) Principal Component Analysis of CD5L expression where the direction of PC1 correlates with pathogenicity. (C, D) Histogram of CD5L expression in single-cell from conditions as indicated. CD5L expression in vitro is validated by qPCR (E, F) and flow cytometry (G). […] CD5L expression was measured by qPCR at 48 h (E) and 72 h (F) and intracellularly by flow cytometry at 48 h (G); (F) At 48 h, cells were lifted from plate, washed and replated in fresh media with IL-23 or PBS and cultured for additional 24 h. […] Cd5l and Il17a expression are measured by qPCR. […] I. IL-17^+ (GFP^+) and IL-17^− (GFP^−) CD4^+ cells were sorted from the gut of naïve mice and the number of RNA transcripts measured by nanostring and normalized based on four house-keeping genes. […]

“Also recorded” adds a separate entry of the source.

For the molecule `CCCCC/C=C\C/C=C\C/C=C\C/C=C\CCCC(=O)O` [PUFA, arachidonic acid], the “percentage of IL-17+ CD4+ T cells” value in assay [1] (CD5L−/− Th17 cells, non-pathogenic condition, 5 uM arachidonic acid) was “reduced percentage”. In addition, the “percentage of IL-23R.GFP+ CD4 T cells” value in assay [1] (IL-23RGFP reporter Th17 (TGFβ1+IL-6) expanded with IL-23, 10 uM arachidonic acid or 20 uM palmitic acid, 48 h, FACS) was “suppressed”. For the same molecule, the “percentage of IL-17+ CD4 T cells” value in assay [1] (WT Th17 (TGFβ1+IL-6) expanded with IL-23, 10 uM arachidonic acid or 20 uM palmitic acid, 48 h, FACS) was “suppressed”. For the same molecule, the “316 gene signature of Th17 cell differentiation and function” value in assay [2] (CD5L−/− Th17 cells (TGFβ1+IL-6), 5 uM arachidonic acid, Nanostring nCounter) is recorded as “resemble WT non-pathogenic Th17 cells”. In assay [2] (qPCR), the Il22 expression result was “increased”; the “expression of key pathogenicity signature genes Il10, Il23r, Ccl5, Csf2 and Lag3” value is on record as “reciprocally regulated”. The “effect on Il17 and Il23r expression in Rorγt−/− Th17 cells” value in assay [2] (qPCR, Rorγt−/− cells) is listed as “abolished”. Also, in assay [3] (added to the agonist ligand), the Il10 transactivation entry is given as “enhanced” and the “Rorγt-mediated Il23r transactivation” value was “almost completely inhibited”. In addition, the “Rorγt driven Il17a transcription” value in assay [3] (cells expressing CD5L) is on record as “but not in those expressing CD5L”. In addition, in assay [3] (control cells), the “Rorγt driven Il17a transcription” value is “decreased”. For the same molecule, the “Rorγt binding to the Il10 CNS-9 region” value in assay [4] was “significantly increased; also recorded: enhanced”.

B1: IL-23: proinflammatory cytokine; recombinant mouse IL-23 (protein, UniProt Q9EQ14 22-196; P43432 23-335, looked up)
Interleukin-23 subunit alpha: VPRSSSPDWAQCQQLSRNLCMLAWNAHAPAGHMNLLREEEDEETKNNVPRIQCEDGCDPQGLKDNSQFCLQRIRQGLAFYKHLLDSDIFKGEPALLPDSPMEQLHTSLLGLSQLLQPEDHPRETQQMPSLSSSQQWQRPLLRSKILRSLQAFLAIAARVFAHGAATLTEPLVPTA
Interleukin-12 subunit beta: MWELEKDVYVVEVDWTPDAPGETVNLTCDTPEEDDITWTSDQRHGVIGSGKTLTITVKEFLDAGQYTCHKGGETLSHSHLLLHKKENGIWSTEILKNFKNKTFLKCEAPNYSGRFTCSWLVQRNMDLKFNIKSSSSSPDSRAVTCGMASLSAEKVTLDQRDYEKYSVSCQEDVTCPTAEETLPIELALEARQQNKYENYSTSFFIRDIIKPDPPKNLQMKPLKNSQVEVSWEYPDSWSTPHSYFSLKFFVRIQRKKEKMKETEEGCNQKGAFLVEKTSTEVQCKGGNVCVQAQDRYYNSSCSKWACVPCRVRS
Consider B1, for which, in assay [5], the Cd5l expression entry was “significantly suppressed”.
